This note sets out measurements from US8383642B2, “Spiropiperidine compounds” (Eli Lilly and Company, priority 2009, dated 2013).

For this assay, the target named is T1, PPARδ (Homo sapiens, UniProt Q03181).
T1 construct: made in house; host or cells: HEK293 (cell lysates)
T1 sequence (Q03181 1-441): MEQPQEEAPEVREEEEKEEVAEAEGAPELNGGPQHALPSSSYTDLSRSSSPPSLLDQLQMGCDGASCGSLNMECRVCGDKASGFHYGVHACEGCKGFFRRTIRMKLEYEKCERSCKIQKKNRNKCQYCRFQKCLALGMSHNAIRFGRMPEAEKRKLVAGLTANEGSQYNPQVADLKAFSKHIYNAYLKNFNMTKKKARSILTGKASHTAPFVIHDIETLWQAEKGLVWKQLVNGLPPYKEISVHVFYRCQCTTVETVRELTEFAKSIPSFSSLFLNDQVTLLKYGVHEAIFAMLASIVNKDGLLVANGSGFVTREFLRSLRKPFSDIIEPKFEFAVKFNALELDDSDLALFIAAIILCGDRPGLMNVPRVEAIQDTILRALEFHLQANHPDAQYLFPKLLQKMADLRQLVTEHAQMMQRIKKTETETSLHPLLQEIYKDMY
T1 sequence (P19793 1-462 partner): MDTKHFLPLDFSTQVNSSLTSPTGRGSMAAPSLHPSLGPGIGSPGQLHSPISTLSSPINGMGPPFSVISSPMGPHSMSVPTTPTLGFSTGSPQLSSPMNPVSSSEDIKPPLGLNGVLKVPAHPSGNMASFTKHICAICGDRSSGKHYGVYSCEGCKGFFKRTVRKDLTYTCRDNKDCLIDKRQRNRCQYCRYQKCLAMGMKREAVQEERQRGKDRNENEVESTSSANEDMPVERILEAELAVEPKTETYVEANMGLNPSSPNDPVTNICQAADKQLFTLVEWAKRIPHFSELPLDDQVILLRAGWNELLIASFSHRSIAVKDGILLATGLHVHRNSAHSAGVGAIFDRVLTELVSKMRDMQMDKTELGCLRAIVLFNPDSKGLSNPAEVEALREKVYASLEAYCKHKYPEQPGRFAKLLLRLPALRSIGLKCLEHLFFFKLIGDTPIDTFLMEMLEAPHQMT
Kind of assay: PPARδ binding assay (SPA). Conditions: concentrations up to 10 μM. As for the experimental part: Because GPR40 is known to be activated by ligands to PPARγ exemplified compounds are examined in PPARα, PPARδ, and PPARγ binding and functional assays to determine the selectivity of exemplified compounds for GPR40. Compounds exemplified herein are tested essentially as described below for PPAR binding and generally have binding values greater than 1000 nM with 10 μM concentrations of test compound and are thus considered negative for PPAR activity.
Binding affinities of compounds for the PPAR α, δ, and γ receptors are assessed using Scintillation Proximity Assay (SPA) technology. Biotinylated oligonucleotide Direct Repeat 2 (DR2) is used for binding the receptors to Yttrium silicate streptavidin-coated SPA beads. […] Non-specific binding is determined in the presence of 10,000 nM of the unlabeled PPAR α/δ dual agonist reference compound for the alpha and delta receptor assays and the PPARγ agonist reference compound for the gamma receptor assay. The binding reaction (100 μl per well in a 96 well [Costar 3632] plate) is incubated for 10 h and counted disintegration per minutes (dpm) on a Wallac Microbeta. Receptor binding affinity (IC50) for the compounds is determined by fitting an 11 point concentration-response curve with a 4-parameter logistic equation. Ki, is determined from the IC50 using the Cheng-Prussoff equation and Kd determined by saturation binding. […]

For `CC#C[C@@H](CC(=O)O)c1ccc(OCc2ccc(CN3CCC4(C=Cc5ccccc54)CC3)cc2)cc1` [Example 1, (3S)-3-(4-{[4-(1′H-Spiro[indene-1,4′-piperidin]-1′-ylmethyl)benzyl]oxy}phenyl)hex-4-ynoic acid], the binding detected result is on record as “no binding is detected”.
